Results: patent publication US20190241660A1, “IMMUNE-STIMULATING PEPTIDES AND CHECKPOINT INHIBITORS, AND USES THEREOF FOR TREATING CANCER” (INTENDET SERVICES, LLC, priority 2017, published 2019)

Legend:
T cell = conditions: in the presence of tetanus toxoid or concanavalin A; Sinha 1988; cited from earlier work
[1] = tested on: E.G7-OVA murine lymphoma cells; assay: Pilot dose response study, INT-151 once vs 3× weekly alone and with anti-CTLA-4 (E.G7-OVA-e215 protocol)
[2] = tested on: E.G7-OVA murine lymphoma cells; assay: E.G7-OVA syngeneic mouse lymphoma model, INT-151 with anti-CTLA-4 (E.G7-OVA-e214 protocol)
[3] = tested on: immune cell profile in tumors; assay: Immune profiles of tumors by FACS analysis in lymphoma bearing mice; format: in vivo, C57BL/6 mice
Text: (§1) In this study the immune cell profile in tumors and blood in lymphoma bearing mice was compared for a 3 times weekly dose of INT-151 and anti-CTLA-4 alone to the combination of 3 times weekly INT-151 plus anti-CTLA-4.
(§2) On day 17 after treatment began, when tumors reached a volume of 500-600 mm^3, mice were sacrificed and tumors and blood was collected for Fluorescent Activated Cell Sorting (FACS) analysis to determine the following immune cell types as listed in the table below:
(§3) Animals were to be monitored individually. Randomization into treatment groups was conducted when tumors reached an average of 43 mm^3 (n=6). Mice were euthanized after 17 days to collect tumors and blood for FACS analysis.

[4] = tested on: immune cell profile in peripheral blood; assay: Immune profiles of peripheral blood by FACS analysis in lymphoma bearing mice; format: in vivo, C57BL/6 mice
Text: as §1, §2, §3

[5] = tested on: E.G7-OVA murine lymphoma cells; assay: Tumor volume in immune cell profile study of established tumors (E.G7-OVA-e217 protocol); format: in vivo, C57BL/6 mice; conditions: at study end; INT-151 100 μg/animal 3 times a week; anti-CTLA-4 100 μg then 50 μg ×2; n=6; FIG. 6
Text: as §1, §2, §3

[6] = INT-151 100 μg/animal 1× weekly (alone or with anti-CTLA-4 days 6, 9, 12), only animals with tumor take
[7] = INT-151 100 μg/animal 3× weekly (alone or with anti-CTLA-4), only animals with tumor take
[8] = INT-151 in combination with anti-CTLA-4

Compound: tyr-gly-gly-phe-met [met-enkephalin]
- T cell proliferation (T cell): elicit T cell proliferation

Compound: N[C@@H](Cc1ccc(O)cc1)C(=O)NCC(=O)O [INT-151, tyrosyl-glycine]
- % Alive on day 26 [1, 6]: 100%
- % Alive on day 29 [1, 6]: 100%
- % Alive on day 33 [1, 6]: 60%
- % Alive on day 36 [1, 6]: 20%
- % Alive on day 43 [1, 6]: 0%
- % Alive on day 26 [1, 7]: 100%
- % Alive on day 29 [1, 7]: 100%
- % Alive on day 33 [1, 7]: 80%
- % Alive on day 36 [1, 7]: 40%
- % Alive on day 40 [1, 7]: 30%
- % Alive on day 43 [1, 7]: 0%
- clinical improvement (median tumor volume and survival) ([1]; INT-151 3 times weekly, alone or with anti-CTLA-4, FIG. 5): greater clinical improvement
- synergy with anti-CTLA-4 on survival [1, 8]: synergizes
- tolerability ([1]; each treatment group): well tolerated
- synergy with anti-CTLA-4 on survival [2, 8]: acts synergistically
- overall survival ([2]; compared to control, FIG. 3, FIG. 4): not INT-151, demonstrated improved overall survival
- body-weight (clinical improvement) ([2]; compared to untreated Group 1, FIG. 2): slight positive clinical improvement
- median tumor volume growth / tumor size ([2]; compared to untreated Group 1, INT-151 100 μg/animal i.p. weekly from Day 6, anti-CTLA-4 Days 6, 9, 12, FIG. 1): slight positive clinical improvement
- CD4+T cells ([3]; compared to controls, FIG. 7): unchanged
- CD8+ T cell population ([3]; compared to controls, FIG. 7): did not affect
- M1 macrophage population ([3]; compared to controls, FIG. 7): decreased
- M2 macrophage population ([3]; compared to controls, FIG. 7): increasing
- granulocytic myeloid suppressor cells ([3]; compared to controls, FIG. 7): unchanged
- regulatory T cells ([3]; compared to controls, FIG. 7): did not affect
- ratio of CD8+T/Treg ([3]; control group 3.2): 2.5
- CD4+ T cell population ([4]; compared to controls, FIG. 8): did not affect
- CD8+ T cell population ([4]; compared to controls, FIG. 8): did not affect
- M1 macrophage population ([4]; compared to controls, FIG. 8): unchanged
- M2 macrophage population ([4]; compared to controls, FIG. 8): elevated
- Monocytic myeloid suppressor cells ([4]; compared to controls, FIG. 8): not affected
- granulocytic MDSCs ([4]; compared to controls, FIG. 8): reduced
- regulatory T cells ([4]; compared to controls, FIG. 8): did not affect
- total macrophage population ([4]; compared to controls, FIG. 8): increased
- ratio of CD8+T/Treg ([4]; controls 8.4): 6.4
- Median tumor volumes [5]: 831.0 mm^3

Compound: CC(C)CC(NC(=O)C(Cc1ccccc1)NC(=O)CNC(=O)CNC(=O)C(N)Cc1ccc(O)cc1)C(=O)O (stereo not shown) [leu-enkephalin, tyr-gly-gly-phe-leu]
- T cell proliferation (T cell): elicit T cell proliferation
